Experimental data taken from ChEMBL document CHEMBL5579819, “Dual-target inhibitors of colchicine binding site for cancer treatment” (Eur J Med Chem, 2024).
Values belong to the molecule of their own block, whether it stands above or below them.

Assays:
A549 [1] = assay: Cytotoxicity against human A549 cells; assay type: functional, cell-based
Histone deacetylase 2 = Histone deacetylase 2 (Homo sapiens, UniProt Q92769); assay: Inhibition of HDAC2 (unknown origin)
U-937 = assay: Cytotoxicity against human U-937 cells; assay type: functional, cell-based
[2] = molecular target: Triosephosphate isomerase (Homo sapiens, UniProt P60174); assay: Inhibition of TPI (unknown origin)
Triosephosphate isomerase, sequence (P60174 whole entry): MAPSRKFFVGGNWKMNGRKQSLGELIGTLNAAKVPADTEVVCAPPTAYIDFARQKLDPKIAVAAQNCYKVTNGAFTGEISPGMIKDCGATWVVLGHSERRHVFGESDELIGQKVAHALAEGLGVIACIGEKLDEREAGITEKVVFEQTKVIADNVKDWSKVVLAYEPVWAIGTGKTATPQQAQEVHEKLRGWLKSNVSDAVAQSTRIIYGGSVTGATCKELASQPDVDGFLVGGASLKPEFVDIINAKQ

[3] = Metabolic stability in BALB/c mouse liver microsome assessed as half life incubated for 1 hrs by LC-MS/MS analysis; assay type: ADME; conditions: liver microsomes
[4] = Cmax in BALB/c mouse at 50 mg/kg, po measured for 24 hrs by LC-MS/MS analysis; assay type: ADME, organism-based; conditions: in vivo
[5] = AUC (0 to t) in BALB/c mouse at 50 mg/kg, po measured for 24 hrs by LC-MS/MS analysis; assay type: ADME, organism-based; conditions: in vivo
HepG2 [6] = assay: Cytotoxicity against human HepG2 cells assessed as reduction in cell growth incubated for 24 hrs by MTT assay; assay type: functional, cell-based; conditions: HepG2, 24 h
A549 [7] = assay: Cytotoxicity against human A549 cells assessed as reduction in cell growth incubated for 24 hrs by MTT assay; assay type: functional, cell-based; conditions: A549, 24 h
MCF7 [8] = assay: Cytotoxicity against human MCF7 cells assessed as cell growth inhibition incubated for 24 hrs by MTT assay; assay type: functional, cell-based; conditions: MCF7, 24 h
[9] = Selectivity index, ratio of CC50 for cytotoxicity against African green monkey Vero cells to IC50 for cytotoxicity against human HepG2 cells; assay type: toxicity, cell-based; conditions: Vero cells (CC50) and HepG2 cells (IC50)
Ishikawa = assay: Antiproliferative activity against human Ishikawa cells assessed as reduction in cell growth incuabted for 48 hrs by MTT assay; assay type: functional, cell-based
HepG2 [10] = assay: Cytotoxicity against human HepG2 cells assessed as reduction in cell viability incubated for 24 hrs by MTT assay; assay type: functional, cell-based; conditions: HepG2, 24 h
MCF7 [11] = assay: Cytotoxicity against human MCF7 cells assessed as reduction in cell viability incubated for 24 hrs by MTT assay; assay type: functional, cell-based; conditions: MCF7, 24 h
HCT-116 = assay: Cytotoxicity against human HCT-116 cells assessed as reduction in cell viability incubated fro 24 hrs by MTT assay; assay type: functional, cell-based; conditions: HCT-116, 24 h
SiHa = assay: Cytotoxicity against human SiHa cells assessed as reduction in cell viability measured for 48 hrs by MTT assay; assay type: functional, cell-based
HeLa = assay: Cytotoxicity against human HeLa cells assessed as reduction in cell viability measured for 48 hrs by MTT assay; assay type: functional, cell-based
MCF7 [12] = assay: Cytotoxicity against human MCF7 cells assessed as reduction in cell growth incubated for 24 hrs by MTT assay; conditions: MCF7, 24 h
MCF7 [13] = assay: Cytotoxicity against human MCF7 cells assessed as reduction in cell viability by MTT assay
[14] = molecular target: Vascular endothelial growth factor receptor 2 (Homo sapiens, UniProt P35968); assay: Inhibition of VEGFR2 (unknown origin)
Vascular endothelial growth factor receptor 2, sequence (P35968 whole entry): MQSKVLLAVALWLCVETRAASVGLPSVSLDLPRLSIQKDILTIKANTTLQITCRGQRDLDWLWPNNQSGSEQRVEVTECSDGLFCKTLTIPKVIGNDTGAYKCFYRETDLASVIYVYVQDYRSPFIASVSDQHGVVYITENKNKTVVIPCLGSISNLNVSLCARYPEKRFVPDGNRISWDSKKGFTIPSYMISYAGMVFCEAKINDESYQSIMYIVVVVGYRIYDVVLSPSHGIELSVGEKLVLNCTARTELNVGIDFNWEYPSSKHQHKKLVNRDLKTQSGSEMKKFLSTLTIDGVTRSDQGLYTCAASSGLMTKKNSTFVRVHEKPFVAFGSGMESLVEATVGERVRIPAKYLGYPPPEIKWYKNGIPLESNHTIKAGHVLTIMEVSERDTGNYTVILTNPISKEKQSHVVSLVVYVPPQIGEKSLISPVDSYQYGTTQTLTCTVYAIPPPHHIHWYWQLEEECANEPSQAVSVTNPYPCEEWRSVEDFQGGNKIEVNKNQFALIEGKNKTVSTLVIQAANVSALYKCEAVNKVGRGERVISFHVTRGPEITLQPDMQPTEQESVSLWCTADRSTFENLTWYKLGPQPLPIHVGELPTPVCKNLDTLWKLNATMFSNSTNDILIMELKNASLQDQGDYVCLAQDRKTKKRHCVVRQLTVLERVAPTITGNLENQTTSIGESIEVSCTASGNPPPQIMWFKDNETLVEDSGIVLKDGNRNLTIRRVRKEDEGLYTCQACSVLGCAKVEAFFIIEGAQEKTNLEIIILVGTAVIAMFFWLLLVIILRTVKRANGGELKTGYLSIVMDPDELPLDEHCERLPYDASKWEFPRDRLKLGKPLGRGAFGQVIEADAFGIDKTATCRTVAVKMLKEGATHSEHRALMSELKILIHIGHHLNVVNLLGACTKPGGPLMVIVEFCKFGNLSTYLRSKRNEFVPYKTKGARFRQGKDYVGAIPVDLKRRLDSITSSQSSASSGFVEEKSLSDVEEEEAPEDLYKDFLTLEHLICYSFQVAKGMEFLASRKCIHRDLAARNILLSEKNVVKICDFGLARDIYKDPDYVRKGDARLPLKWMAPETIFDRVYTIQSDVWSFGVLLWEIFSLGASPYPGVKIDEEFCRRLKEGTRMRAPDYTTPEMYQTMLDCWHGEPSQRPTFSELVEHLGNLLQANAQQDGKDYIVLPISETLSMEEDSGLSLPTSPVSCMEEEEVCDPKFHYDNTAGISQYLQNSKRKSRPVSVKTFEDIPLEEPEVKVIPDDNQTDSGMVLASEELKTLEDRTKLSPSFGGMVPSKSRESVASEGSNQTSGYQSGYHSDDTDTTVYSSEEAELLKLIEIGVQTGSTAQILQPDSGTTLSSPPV

[15] = molecular target: Platelet-derived growth factor receptor beta (Homo sapiens, UniProt P09619); assay: Inhibition of human recombinant PDGFRbeta incubated for 40 mins by Kinase-Glo luminescent kinase assay
Platelet-derived growth factor receptor beta, sequence (P09619 whole entry): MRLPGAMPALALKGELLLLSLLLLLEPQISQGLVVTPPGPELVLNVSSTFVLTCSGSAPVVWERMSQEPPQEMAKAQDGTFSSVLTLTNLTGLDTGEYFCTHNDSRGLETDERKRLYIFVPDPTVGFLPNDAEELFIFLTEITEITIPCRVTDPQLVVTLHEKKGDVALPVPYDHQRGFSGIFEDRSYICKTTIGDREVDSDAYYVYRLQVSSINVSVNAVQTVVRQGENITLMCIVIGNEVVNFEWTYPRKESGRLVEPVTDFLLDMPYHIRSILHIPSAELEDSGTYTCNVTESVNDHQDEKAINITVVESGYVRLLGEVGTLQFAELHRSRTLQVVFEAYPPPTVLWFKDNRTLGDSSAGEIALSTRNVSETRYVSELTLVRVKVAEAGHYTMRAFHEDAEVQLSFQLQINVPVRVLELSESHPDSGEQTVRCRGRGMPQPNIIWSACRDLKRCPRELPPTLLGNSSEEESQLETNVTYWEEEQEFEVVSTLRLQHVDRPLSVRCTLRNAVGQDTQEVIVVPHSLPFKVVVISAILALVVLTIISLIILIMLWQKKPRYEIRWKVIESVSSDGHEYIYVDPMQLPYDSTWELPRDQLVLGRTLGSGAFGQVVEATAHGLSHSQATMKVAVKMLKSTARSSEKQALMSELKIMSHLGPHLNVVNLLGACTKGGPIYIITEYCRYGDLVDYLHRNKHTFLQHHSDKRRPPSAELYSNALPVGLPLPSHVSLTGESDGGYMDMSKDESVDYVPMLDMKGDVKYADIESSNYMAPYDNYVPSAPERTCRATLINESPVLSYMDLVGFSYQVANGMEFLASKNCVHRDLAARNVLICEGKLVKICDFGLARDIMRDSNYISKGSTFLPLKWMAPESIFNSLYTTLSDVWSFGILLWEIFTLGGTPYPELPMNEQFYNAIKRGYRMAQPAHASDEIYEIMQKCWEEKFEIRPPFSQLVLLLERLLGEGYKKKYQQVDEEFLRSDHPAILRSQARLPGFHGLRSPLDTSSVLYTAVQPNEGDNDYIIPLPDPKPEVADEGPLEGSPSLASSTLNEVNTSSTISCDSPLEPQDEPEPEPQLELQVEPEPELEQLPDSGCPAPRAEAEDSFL

MCF7 [16] = assay: Cytotoxicity against human MCF7 cells assessed as reduction in cell growth incubated for 72 hrs by MTT assay; assay type: functional, cell-based; conditions: MCF7, 72 h
COLO 205 = assay: Cytotoxicity against human COLO 205 cells assessed as reduction in cell growth incubated for 24 hrs by SRB assay; assay type: functional, cell-based; conditions: COLO 205, 24 h
Tubulin = assay: Inhibition of tubulin polymerization (unknown origin) by fluorescence based assay; assay type: protein-complex assay, Homo sapiens

Histone deacetylase 2, sequence (Q92769 whole entry): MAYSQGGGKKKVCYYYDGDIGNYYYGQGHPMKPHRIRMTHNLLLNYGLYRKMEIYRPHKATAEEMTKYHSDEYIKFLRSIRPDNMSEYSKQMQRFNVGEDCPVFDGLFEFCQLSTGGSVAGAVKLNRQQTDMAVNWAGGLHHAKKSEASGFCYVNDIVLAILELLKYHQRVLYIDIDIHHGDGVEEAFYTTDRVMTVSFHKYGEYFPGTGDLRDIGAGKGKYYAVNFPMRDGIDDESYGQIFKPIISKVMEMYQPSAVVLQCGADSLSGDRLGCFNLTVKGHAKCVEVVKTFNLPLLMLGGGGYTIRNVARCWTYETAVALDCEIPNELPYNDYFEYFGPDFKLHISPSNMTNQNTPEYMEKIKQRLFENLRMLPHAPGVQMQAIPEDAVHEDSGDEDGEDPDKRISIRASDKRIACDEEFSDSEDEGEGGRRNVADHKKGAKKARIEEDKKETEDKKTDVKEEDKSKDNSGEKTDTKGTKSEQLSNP

Structure (SMILES): CN(C)c1ccc(/C=N/c2c(N)n(C)c(=O)[nH]c2=O)cc1
IC50 (HepG2 [6]): 1.07 µM | IC50 (A549 [7]): 1.53 µM | IC50 (MCF7 [8]): 3.17 µM | selectivity ratio [9]: 3.74 | IC50 [2]: 1.9 µM

Structure (SMILES): O=c1cc(-c2ccc(F)cc2)oc2cc(-c3ccoc3)ccc12
IC50 [2]: 1.4 µM | IC50 (Ishikawa): 1 µM

Structure (SMILES): CCOCCSc1nc(-c2ccccc2Cl)nn1CCOCC
IC50 (HepG2 [10]): 1.3 µM | IC50 (MCF7 [11]): 5.16 µM | IC50 (HCT-116): 3.36 µM

Structure (SMILES): COc1cc2oc(C(=O)c3cc(OC)c(OC)c(OC)c3)cc2cc1/C=C/C(=O)O
IC50 (SiHa): 1.1 µM | IC50 (HeLa): 1.06 µM

Structure (SMILES): Nc1ccccc1NC(=O)c1ccc(CN2CCC/C(=C\c3cccc(Cl)c3)C2=O)cc1
IC50 (MCF7 [16]): 2.1 µM

The next lines start with results.

IC50 (Histone deacetylase 2): 0.06 µM
Structure (SMILES): COc1cc2c(cc1OCc1ccc(C(=O)Nc3ccccc3N)cc1)CC[C@@H]1[C@@H]2CC[C@]2(C)[C@@H](O)CC[C@@H]12
IC50 (A549 [1]): 1.78 µM | IC50 (U-937): 0.371 µM

IC50 [2]: 0.99 µM | half-life [3]: 4.29 h | Cmax [4]: 12200 ng/mL | AUC(0-t) at 24 h [5]: 87600 ng·h/mL
Structure (SMILES): CCOC(=O)Nc1nc2ccc(-c3cc(Cc4n[nH]c(=O)c5ccccc45)ccc3F)cc2[nH]1

IC50 [2]: 7.99 µM | IC50 [14]: 5.75 µM | IC50 [15]: 3.18 µM
Structure (SMILES): O=C1Nc2ccccc2/C1=C/c1ccc(OCC(=O)c2ccc(Br)cc2)cc1
IC50 (MCF7 [12]): 14.8 µM | IC50 (MCF7 [13]): 14.8 µM

IC50 (Tubulin): 1.66 µM
Structure (SMILES): COc1cc(OC)c(/C=C2/C(=O)Nc3cc(Cl)ccc32)c(OC)c1
IC50 (COLO 205): 0.2 µM
